Assay [1] relates to GP2D (KRAS G12D) cells. The assay is described as follows: 2D cell viability assay (CellTiter-Glo). As to conditions: GP2d, 96 h, 4 days. In kind it is cell-based. In a few lines: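 Viability was read by CellTiter-Glo after 4 days at 37 °C of 2D culture of KRAS G12D GP2D cells (1000/well, RPMI, 10% FBS) on pre-spotted threefold compound dilutions. EC50 was fitted with a sigmoidal dose-response model as the point of half-maximal luminescence loss.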
Background: In ATP-based viability assays light output follows the ATP content of the culture.

The target in assay [2] is GDP-loaded KRAS G12D (Homo sapiens (Human), UniProt P01116, G12D). The experiment in a line: KRAS G12D (GDP) biochemical assay (TR-FRET probe displacement). The class given is binding. As to conditions: 2 hours. The procedure, abridged:
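TR-FRET probe displacement: 1:3 DMSO serial dilutions pre-incubated 30 min with GDP-bound KRAS G12D, followed by Eu-streptavidin/probe for 2 h at room temperature (Hepes pH 7.4, NaCl, MgCl2, Tween-20 buffer). IC50 defined as concentration halving TR-FRET ratio, from sigmoidal dose-response fit.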
(In general: In TR-FRET formats the signal depends on donor and acceptor labels being close together.)

GDP-loaded KRAS G12D, sequence (P01116-2 other isoform, or with tags, fused parts or gaps G12D): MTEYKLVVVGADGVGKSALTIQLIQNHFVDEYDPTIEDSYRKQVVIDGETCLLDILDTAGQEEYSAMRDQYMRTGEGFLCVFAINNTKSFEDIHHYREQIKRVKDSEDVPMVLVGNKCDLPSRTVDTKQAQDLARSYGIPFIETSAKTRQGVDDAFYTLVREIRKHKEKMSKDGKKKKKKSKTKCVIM

By EC50 is commonly meant the concentration giving half of the maximal effect. For orientation: IC50 means the concentration that inhibits the measured activity by half. A high value points to weaker potency in that assay. As for `C#Cc1c(F)ccc2cccc(-c3nc4c5c(nc(OC[C@@]67CCCN6C[C@H](F)C7)nc5c3F)N3C[C@H]5CC[C@H](N5)[C@H]3C[C@H]4O)c12` [Example 186, (4R,5aR,6S,9R)-2-(8-ethynyl-7-fluoronaphthalen-1-yl)-1-fluoro-12-(((2R,7aS)-2-fluorotetrahydro-1H-pyrrolizin-7a(5H)-yl)methoxy)-4,5,5a,6,7,8,9,10-octahydro-3,10a,11,13,14-pentaaza-6,9-methanonaphtho[1,8-ab]heptalen-4-ol], the response in assay [1] was half-maximal at 13 nM (EC50). The 50% inhibitory concentration (IC50) in assay [2] was found to be 0.2 nM.

Take `C#Cc1c(F)ccc2cccc(-c3nc4c5c(nc(OC[C@@]67CCCN6[C@H](COC(C(F)(F)F)(C(F)(F)F)C(F)(F)F)CC7)nc5c3F)N3C[C@H]5CC[C@H](N5)[C@H]3CC4)c12` [Example 187, (5aR,6S,9R)-2-(8-ethynyl-7-fluoronaphthalen-1-yl)-1-fluoro-12-(((3S,7aS)-3-(((1,1,1,3,3,3-hexafluoro-2-(trifluoromethyl)propan-2-yl)oxy)methyl)tetrahydro-1H-pyrrolizin-7a(5H)-yl)methoxy)-4,5,5a,6,7,8,9,10-octahydro-3,10a,11,13,14-pentaaza-6,9-methanonaphtho[1,8-ab]heptalene]: in assay [1], the concentration for a half-maximal effect (EC50) turned out to be 62 nM. Besides, in assay [2], the IC50 amounted to 0.9 nM.

For the compound `C#Cc1c(F)ccc2cccc(-c3nc4c5c(nc(OC[C@@]67CCCN6C[C@H](F)C7)nc5c3F)N3C[C@H]5CC[C@H](N5)[C@H]3CCCC4)c12` [Example 188, (7aR,8S,11R)-2-(8-ethynyl-7-fluoronaphthalen-1-yl)-1-fluoro-14-(((2R,7aS)-2-fluorotetrahydro-1H-pyrrolizin-7a(5H)-yl)methoxy)-4,5,6,7,7a,8,9,10,11,12-decahydro-3,12a,13,15,16-pentaaza-8,11-methanocyclohepta[4,5]cyclonona[1,2,3-de]naphthalene], in assay [1], the response was half-maximal at 100 nM (EC50). This compound returned a half-inhibitory concentration (IC50) in assay [2] of 0.2 nM.

Regarding `C#Cc1c(F)ccc2cccc(-c3cc4c5c(nc(OC[C@@]67CCCN6C[C@H](F)C7)nc5c3F)N3C[C@H]5CC[C@H](N5)[C@H]3CCC4)c12` [Example 192, (1S,4R,15aR)-11-(8-ethynyl-7-fluoronaphthalen-1-yl)-10-fluoro-8-(((2R,7aS)-2-fluorotetrahydro-1H-pyrrolizin-7a(5H)-yl)methoxy)-2,3,4,5,13,14,15,15a-octahydro-1H-1,4-epiminoazepino[1′,2′:1,8]azocino[2,3,4-de]quinazoline], a half-maximal response in assay [1] (EC50) required 4.5 nM. The IC50 in assay [2] is 0.1 nM.

In assay [1], `C#Cc1c(F)ccc2cc(N)cc(-c3cc4c5c(nc(OC[C@@]67CCCN6C[C@H](F)C7)nc5c3F)N3C[C@H]5CC[C@H](N5)[C@@H]3[C@@H](C)C4)c12` [Example 193, 5-ethynyl-6-fluoro-4-((1S,4R,14S,14aS)-10-fluoro-8-(((2R,7aS)-2-fluorotetrahydro-1H-pyrrolizin-7a(5H)-yl)methoxy)-14-methyl-1,2,3,4,5,13,14,14a-octahydro-1,4-epiminoazepino[1′,2′:1,7]azepino[2,3,4-de]quinazolin-11-yl)naphthalen-2-amine] yielded an EC50 of 4.9 nM. Besides, the IC50 in assay [2] came to 0.05 nM.

In turn, `C#Cc1c(F)ccc2cc(N)cc(-c3nc4c5c(nc(OC[C@@]67CCCN6C[C@H](F)C7)nc5c3F)N3C[C@H]5CC[C@H](N5)[C@@H]3CC[C@H]4C)c12` [Example 194, 5-ethynyl-6-fluoro-4-((4R,6aS,7S,10R)-1-fluoro-13-(((2R,7aS)-2-fluorotetrahydro-1H-pyrrolizin-7a(5H)-yl)methoxy)-4-methyl-5,6,6a,7,8,9,10,11-octahydro-4H-3,11a,12,14,15-pentaaza-7,10-methanocyclohepta[4,5]cycloocta[1,2,3-de]naphthalen-2-yl)naphthalen-2-amine] yielded an EC50 in assay [1] of 70 nM. For the same compound, the IC50 in assay [2] stood at 31 nM.

Compound `C#Cc1c(F)ccc2cccc(-c3nc4c5c(nc(OC[C@@]67CCCN6[C@H](CF)CC7)nc5c3F)N3C[C@H]5CC[C@H](N5)[C@H]3CC[C@H]4C)c12` [Example 195, (4R,6aR,7S,10R)-2-(8-ethynyl-7-fluoronaphthalen-1-yl)-1-fluoro-13-(((3S,7aS)-3-(fluoromethyl)tetrahydro-1H-pyrrolizin-7a(5H)-yl)methoxy)-4-methyl-5,6,6a,7,8,9,10,11-octahydro-4H-3,11a,12,14,15-pentaaza-7,10-methanocyclohepta[4,5]cycloocta[1,2,3-de]naphthalene] yielded an EC50 in assay [1] of 1.5 nM. This compound yielded a 50% inhibitory concentration (IC50) in assay [2] of 0.07 nM.

`C#Cc1c(F)ccc2cc(N)cc(-c3nc4c5c(nc(OC[C@@]67CCCN6C[C@H](F)C7)nc5c3F)N3C[C@H]5CC[C@H](N5)[C@@H]3[C@@H](C)C4)c12` [Example 196, 5-ethynyl-6-fluoro-4-((5S,5aS,6S,9R)-1-fluoro-12-(((2R,7aS)-2-fluorotetrahydro-1H-pyrrolizin-7a(5H)-yl)methoxy)-5-methyl-4,5,5a,6,7,8,9,10-octahydro-3,10a,11,13,14-pentaaza-6,9-methanonaphtho[1,8-ab]heptalen-2-yl)naphthalen-2-amine] registered a half-maximal effective concentration (EC50) in assay [1] of 1.8 nM. The compound also gave an IC50 in assay [2] of 0.1 nM.

In assay [1], `C#Cc1c(F)ccc2cccc(-c3nc4c5c(nc(OC[C@@]67CCCN6[C@H](COc6cnc(C(F)(F)F)cn6)CC7)nc5c3F)N3C[C@H]5CC[C@H](N5)[C@H]3CCC4)c12` [Example 197, (6aR,7S,10R)-2-(8-ethynyl-7-fluoronaphthalen-1-yl)-1-fluoro-13-(((3S,7aS)-3-(((5-(trifluoromethyl)pyrazin-2-yl)oxy)methyl)tetrahydro-1H-pyrrolizin-7a(5H)-yl)methoxy)-5,6,6a,7,8,9,10,11-octahydro-4H-3,11a,12,14,15-pentaaza-7,10-methanocyclohepta[4,5]cycloocta[1,2,3-de]naphthalene] showed an EC50 of 2.4 nM. In assay [2], this compound came in with an IC50 of 0.04 nM.

On to `C#Cc1c(F)ccc2cccc(-c3nc4c5c(nc(OC[C@@]67CCCN6[C@H](COc6cc(C(F)(F)F)cnn6)CC7)nc5c3F)N3C[C@H]5CC[C@H](N5)[C@H]3CCC4)c12` [Example 198, (6aR,7S,10R)-2-(8-ethynyl-7-fluoronaphthalen-1-yl)-1-fluoro-13-(((3S,7aS)-3-(((5-(trifluoromethyl)pyridazin-3-yl)oxy)methyl)tetrahydro-1H-pyrrolizin-7a(5H)-yl)methoxy)-5,6,6a,7,8,9,10,11-octahydro-4H-3,11a,12,14,15-pentaaza-7,10-methanocyclohepta[4,5]cycloocta[1,2,3-de]naphthalene], for which the EC50 in assay [1] was found to be 2.4 nM. This compound also registered an IC50 in assay [2] of 0.02 nM.

With `C#Cc1c(F)ccc2cccc(-c3nc4c5c(nc(OC[C@@]67CCCN6[C@H](COc6cnnc(C(F)(F)F)c6)CC7)nc5c3F)N3C[C@H]5CC[C@H](N5)[C@H]3CCC4)c12` [Example 199, (6aR,7S,10R)-2-(8-ethynyl-7-fluoronaphthalen-1-yl)-1-fluoro-13-(((3S,7aS)-3-(((6-(trifluoromethyl)pyridazin-4-yl)oxy)methyl)tetrahydro-1H-pyrrolizin-7a(5H)-yl)methoxy)-5,6,6a,7,8,9,10,11-octahydro-4H-3,11a,12,14,15-pentaaza-7,10-methanocyclohepta[4,5]cycloocta[1,2,3-de]naphthalene], in assay [1], the EC50 was determined as 3.2 nM. The compound further yielded an IC50 in assay [2] of 0.07 nM.

On to `C#Cc1c(F)ccc2cccc(-c3nc4c5c(nc(OC[C@@]67CCCN6[C@H](COc6cnc(C(F)F)cn6)CC7)nc5c3F)N3C[C@H]5CC[C@H](N5)[C@H]3CCC4)c12` [Example 200, (6aR,7S,10R)-13-(((3S,7aS)-3-(((5-(difluoromethyl)pyrazin-2-yl)oxy)methyl)tetrahydro-1H-pyrrolizin-7a(5H)-yl)methoxy)-2-(8-ethynyl-7-fluoronaphthalen-1-yl)-1-fluoro-5,6,6a,7,8,9,10,11-octahydro-4H-3,11a,12,14,15-pentaaza-7,10-methanocyclohepta[4,5]cycloocta[1,2,3-de]naphthalene], for which a half-maximal effect in assay [1] (EC50) was put at 2.9 nM. In assay [2], this compound came in with a concentration for half-maximal inhibition (IC50) of 0.05 nM.

Turning to `C#Cc1c(F)ccc2cccc(-c3nc4c5c(nc(OC[C@@]67CCCN6[C@H](CSc6cc(C(F)(F)F)ncn6)CC7)nc5c3F)N3C[C@H]5CC[C@H](N5)[C@H]3CCC4)c12` [Example 201, (6aR,7S,10R)-2-(8-ethynyl-7-fluoronaphthalen-1-yl)-1-fluoro-13-(((3S,7aS)-3-(((6-(trifluoromethyl)pyrimidin-4-yl)thio)methyl)tetrahydro-1H-pyrrolizin-7a(5H)-yl)methoxy)-5,6,6a,7,8,9,10,11-octahydro-4H-3,11a,12,14,15-pentaaza-7,10-methanocyclohepta[4,5]cycloocta[1,2,3-de]naphthalene], the EC50 in assay [1] turned out to be 10 nM. This compound also had an IC50 in assay [2] of 0.02 nM.

The compound `C#Cc1c(F)ccc2cccc(-c3c(Cl)c4c5c(nc(OC[C@@]67CCCN6C[C@H](F)C7)nc5c3F)N3C[C@H]5CC[C@H](N5)[C@H]3CC4)c12` [Example 202, (1S,4R,14aR)-12-chloro-11-(8-ethynyl-7-fluoronaphthalen-1-yl)-10-fluoro-8-(((2R,7aS)-2-fluorotetrahydro-1H-pyrrolizin-7a(5H)-yl)methoxy)-1,2,3,4,5,13,14,14a-octahydro-1,4-epiminoazepino[1′,2′:1,7]azepino[2,3,4-de]quinazoline] yielded a concentration giving a half-maximal response (EC50) in assay [1] of 64 nM. Further, the IC50 in assay [2] amounted to 0.37 nM.

The values are drawn from patent US20230339981A1, “KRAS G12D MODULATING COMPOUNDS” (priority 2022, published 2023).
